Each structure is given as a SMILES string. Structures can show the parent of a compound that is named as a salt. Where two headings read alike, the source gives them in different places.

Series [1] is described as follows: Storage stability of midodrine in compounds (60° C., 20 days; discoloration and remaining midodrine by HPLC). It is filed as physicochemical. The conditions noted are these: 3 parts midodrine + 100 parts compound, sealed; for STORAGE STABILITY OF MIDODRINE: RATIO OF REMAINING MIDODRINE (% BY WEIGHT): HPLC. The procedure:
Then the color of the mixture after storage was visually observed. When the color was found unchanged compared with that before the storage, the mixture was evaluated as “excellent.” When discoloration was found, the mixture was evaluated as “bad.”
The weight W5 (g) of non-decomposed midodrine remaining in the mixture after storage was quantified by HPLC, and the ratio (% by weight) of remaining midodrine to the amount W6 (g) of midodrine added was computed using the following formula (1).
Ratio(% by weight)of remaining midodrine=100×(W5/W6) (1)

Series [2] is described as follows: Solubility of midodrine at 25° C. in monomers / compounds (saturated solution, HPLC). The procedure: One hundred parts by weight of a monomer shown in TABLE 1 and 3 parts by weight of midodrine were sufficiently mixed to prepare a midodrine solution, and the dissolved state of midodrine in the midodrine solution was visually observed. The midodrine solution was stored at a temperature of 25° C. for 7 days, and then the dissolved state of midodrine was again visually observed. The dissolvability of midodrine was evaluated according to the following criteria.
A midodrine solution composed of 50 parts by weight of midodrine and 950 parts by weight of a compound shown in TABLE 2 and used as a solvent was prepared. Then the midodrine solution was maintained at 50° C. for 15 minutes and subjected to ultrasonic shaking in a water bath at 25° C. for 10 minutes. The resultant midodrine solution was transferred to a centrifuge tube and left to stand at 25° C. for 2 hours. Then the midodrine solution was centrifuged at a rotation speed of 3,000 rpm using a centrifuge, and the presence or absence of crystals of midodrine on the bottom of the centrifuge tube was observed. When no crystals of midodrine were deposited, the same procedure was repeated with the midodrine-to-compound weight ratio increased up to 200:800 to thereby prepare a saturated midodrine solution.
A certain amount of the supernatant of the saturated midodrine solution after centrifugation was collected, and the collected supernatant was subjected to HPLC measurement to quantify the weight W7 (g) of midodrine dissolved in the saturated midodrine solution.
(W8: weight (g) of compound used as solvent in saturated midodrine solution)

The nature of series [3]: Dissolvability of midodrine in monomers (visual observation). The conditions noted are these: 3 parts by weight midodrine in 100 parts by weight of the monomer; observed immediately and after 7 days at 25° C. Format: physicochemical.
Excerpt: High: No deposition of midodrine was found in any of the midodrine solution immediately after preparation and the midodrine solution after storage for 7 days.
Middle: Deposition of midodrine was found in the solution immediately after preparation, but no deposition of midodrine was found in the midodrine solution after storage for 7 days.
Low: Deposition of midodrine was found in the midodrine solution immediately after preparation and also in the midodrine solution after storage for 7 days.

In the case of `CC(C)CCCC(C)CCCC(C)CCCCC(C)CCCC(C)CCCC(C)C` (centres unmarked), in series [1] (colour observed visually), the “STORAGE STABILITY OF MIDODRINE: DISCOLORATION TEST” value was “EXCELLENT”.

On to `C=CN1CCCC1=O` [1-VINYL-2-PYRROLIDONE], for which, in series [2], the “SOLUBILITY OF MIDODRINE” value is listed as over 3.0 g. Also, the “DISSOLVABILITY OF MIDODRINE” value in series [3] is on record as “HIGH”.

Regarding `C=C(C)C(=O)OCC(CC)CCCC` (centres unmarked) [2-ETHYLHEXYL METHACRYLATE], in series [3], the “DISSOLVABILITY OF MIDODRINE” value is “LOW”.

Consider `C=CC(=O)O` [ACRYLIC ACID], for which the “DISSOLVABILITY OF MIDODRINE” value in series [3] is “HIGH”.

As to `C=C(C)C(=O)OCCCC` [BUTYL METHACRYLATE], the “SOLUBILITY OF MIDODRINE” value in series [2] (in the monomer as solvent, 25° C., grams of midodrine per 100 g of solvent) came to 0.10 g. Also, the “DISSOLVABILITY OF MIDODRINE” value in series [3] is listed as “LOW”.

As to `OCCCCO` [BUTYLENE GLYCOL], the “SOLUBILITY OF MIDODRINE” value in series [2] was determined as 7.72 g. The “STORAGE STABILITY OF MIDODRINE: DIS[…]” value in series [1] (colour observed visually) is on record as “EXCELLENT”.

On to `C=C(C)C(=O)OCCCCCCCCCCCC` [DODECYL METHACRYLATE], for which the “SOLUBILITY OF MIDODRINE” value in series [2] was determined as 0.02 g. Besides, the “DISSOLVABILITY OF MIDODRINE” value in series [3] was “LOW”.

`C=CC(=O)OCC` [ETHYL ACRYLATE]: the “SOLUBILITY OF MIDODRINE” value in series [2] was 0.25 g. The “DISSOLVABILITY OF MIDODRINE” value in series [3] is “LOW”.

Turning to `CCCCCCCCCCCC(=O)OCCCCCC` [HEXYL LAURATE], the “SOLUBILITY OF MIDODRINE” value in series [2] is given as 0.02 g. Moreover, the “STORAGE STABILITY OF MIDODRINE: DISCOLORATION TEST” value in series [1] (colour observed visually) is “EXCELLENT”.

Turning to `CCCCCCCCC(CO)CCCCCC` (centres unmarked) [HEXYLDECANOL], in series [2], the “Value in parentheses after the liquid solubilizing aid (solubility of midodrine in the compound)” value (“Value in parentheses” for short) is reported as “HEXYLDECANOL (0.26)”. Moreover, the “STORAGE STABILITY OF MIDODRINE: RATIO OF REMAINING MIDODRINE (% BY WEIGHT)” value in series [1] amounted to 90.4 % BY WEIGHT. Also, the “STORAGE STABILITY OF MIDODRINE: DISCOLORATION TEST” value in series [1] (colour observed visually) is “EXCELLENT”.

As to `CCCCCCCCCCCCCC(=O)OC(C)C` [ISOPROPYL MYRISTATE], the “Value in parentheses” value in series [2] is recorded as “ISOPROPYL MYRISTATE (0.02)”. Also, the “STORAGE STABILITY OF MIDODRINE: DISCOLORATION TEST” value in series [1] (colour observed visually) was “EXCELLENT”.

Turning to `CCCCCCCCCCCCCCCC(=O)OC(C)C` [ISOPROPYL PALMITATE], the “Value in parentheses” value in series [2] is on record as “ISOPROPYL PALMITATE (0.02)”. Also, the “STORAGE STABILITY OF MIDODRINE: DISCOLORATION TEST” value in series [1] (colour observed visually) is listed as “EXCELLENT”.

On to `CC(C)CCCCCCCCCCCCCCC(=O)O` [ISOSTEARIC ACID], for which the “STORAGE STABILITY OF MIDODRINE: DISCOLORATION TEST” value in series [1] (colour observed visually) was “BAD”.

As for `CC(C)CCCCCCCCCCCCCCCO` [ISOSTEARYL ALCOHOL], the “STORAGE STABILITY OF MIDODRINE: DISCOLORATION TEST” value in series [1] (colour observed visually) is “EXCELLENT”.

`CCCCCCCCCCCCO` [LAURYL ALCOHOL]: in series [1] (colour observed visually), the “STORAGE STABILITY OF MIDODRINE: DISCOLORATION TEST” value is listed as “BAD”.

For the compound `NCCO` [MONOETHANOLAMINE], the “STORAGE STABILITY OF MIDODRINE: DISCOLORATION TEST” value in series [1] (colour observed visually) is reported as “BAD”.

In the case of `CCCCCCC(O)CO` (centres unmarked) [OCTANEDIOL], the “SOLUBILITY OF MIDODRINE” value in series [2] was 1.78 g. Also, the “STORAGE STABILITY OF MIDODRINE: RATIO OF REMAINING MIDODRINE (% BY WEIGHT)” value in series [1] is 48.0 % BY WEIGHT. Also, the “STORAGE STABILITY OF MIDODRINE: DISCOLORATION TEST” value in series [1] (colour observed visually) is given as “BAD”.

For the compound `CCCCCCCCCCC(CO)CCCCCCCC` (centres unmarked) [OCTYLDODECANOL], the “STORAGE STABILITY OF MIDODRINE: RATIO OF REMAINING MIDODRINE (% BY WEIGHT)” value in series [1] is reported as 100.0 % BY WEIGHT. For the same compound, the “STORAGE STABILITY OF MIDODRINE: DISCOLORATION TEST” value in series [1] (colour observed visually) is “EXCELLENT”.

As to `CCCCCCCC/C=C\CCCCCCCCO` [OLEYL ALCOHOL], the “SOLUBILITY OF MIDODRINE” value in series [2] worked out at 0.40 g. Further, the “STORAGE STABILITY OF MIDODRINE: DISCOLORATION TEST” value in series [1] (colour observed visually) is listed as “BAD”.

As to `CC(O)CO` (centres unmarked) [PROPYLENE GLYCOL], in series [2], the “SOLUBILITY OF MIDODRINE” value amounted to 15.67 g. Also, the “STORAGE STABILITY OF MIDODRINE: DISCOLORATION TEST” value in series [1] (colour observed visually) was “EXCELLENT”.

Take `CC(=O)OCC(COC(C)=O)OC(C)=O` [TRIACETIN]: in series [2], the “SOLUBILITY OF MIDODRINE” value was found to be 0.70 g. Besides, the “STORAGE STABILITY OF MIDODRINE: DISCOLORATION TEST” value in series [1] (colour observed visually) is given as “EXCELLENT”.

Regarding `CCOC(=O)CC(O)(CC(=O)OCC)C(=O)OCC` [TRIETHYL CITRATE], in series [1] (colour observed visually), the “STORAGE STABILITY OF MIDODRINE: DISCOLORATION TEST” value is “EXCELLENT”.

Values taken from US20130287823A1, “PATCH” (priority 2010, published 2013).
